One data set deals with RunX2. Description: Gene expression analysis (qPCR, ΔΔCt) in HuMSCs: RunX2. In kind it is cell-based, human. The note with it: 7 days. The protocol: (§1) Human umbilical cord derived mesenchymal stem cells (HuMSCs) were plated in a 24 well plate at a density of 30,000 cells per well. Samples were divided as controls—no drug, no differentiation media; osteogenic control—no drug, DMEM media supplemented with factors to induce osteogenesis including dexamethasone, L-ascorbic acid, and beta-glycerol phosphate; 2.5, 5, and 10 μM wells consisted of DMEM media supplemented respective concentrations of UC2288. Media was renewed in all wells every other day. After 7 days, all samples were processed to extract total RNA. Next, cDNA was produced and qPCR was performed for gene expression analyses. Three genes of interest were analyzed-RunX2, Sp7 (Osterix), and CDKN1A (p21). RunX2 and Sp7 are genes responsible for osteoblast differentiation and take part in osteogenesis. To analyze the data, the ΔΔCt method was employed against an 18s endogenous control and DMEM media without differentiation factors or drugs as reference controls. The ΔΔCt can be described as:
(§2) Relative mRNA expression of sample=2^−ΔΔCt of sample,
(§3) where ΔΔCt of sample=(Ct of sample−Ct of 18s of sample)−(Ct of reference control−Ct of 18s of reference control).

Data set [1] concerns MSCs. Description: Cytotoxicity (MTT assay) of UC2288 in purified MSCs. In kind it is cell-based, mouse (C57BL/6). The protocol: All procedures with animals were approved by the IACUC at the University of Wisconsin-Milwaukee. The mice used for this study were C57BL/6 (Charles River, MA). Fifteen 8-week-old male mice were euthanized by CO2 inhalation. After checking for a heartbeat, a cervical dislocation was performed followed by checking for any signs of breathing again for precautionary measures. After confirming that there were no signs of breathing, the tibia and the femur were extracted and placed in phosphate buffered saline (PBS) (Corning Inc., NY). A bone marrow flush with a 23-gauge, 0.5-inch needle (Becton Dickinson, NJ) was performed in a biosafety hood and the pelleted bone marrow cell suspension was plated in a 60×15 mm Primaria cell culture dish (Corning Inc., NY) in MesenCult Basal Medium (Mouse) that contained 50 mL MesenCult 10× Supplement (Mouse) and 0.5 mL MesenPure 1000× (STEMCELL Technologies, Vancouver, Canada). The plates were incubated at 37° C. in a 5% CO2 humidified atmosphere. After 24 hours, half the medium volume was removed, and fresh medium was added. The media in the cultures were renewed every other day. As the cells reached confluency, they were detached by treatment with 0.5% Trypsin-EDTA (Thermo Fisher Scientific, MA) and replated into a 100×20 mm Primaria cell culture dish (Corning Inc.) and eventually into a T-25-cm^2 Primaria flask (Corning Inc, NY). […]

Another data set relates to CDKN1A (p21). As to the kind of experiment: Gene expression analysis (qPCR, ΔΔCt) in HuMSCs: p21. It counts as cell-based, human. The settings on record: 7 days. On the procedure: as §1, §2, §3
A further data set has as its system fractured tibiae. Description: MicroCT imaging of fracture healing in mice after post-fracture UC2288 injection (Example 4). It counts as in vivo. The settings on record: five 0.1 mL 10 μM injections at days 3, 5, 7, 10, 14; 21 days post-injury. On the procedure: Male wildtype mice (n=10) aged between 8-10 weeks were selected for this study. Future experiments will also include aged mice (e.g., ˜18 months of age). […] The mice had their tibiae fractured at the beginning of the study. Five mice were considered controls and received five injections of saline solution at days 3, 5, 7, 10, and 14 post-injury. The other five mice were injected five times with 0.1 mL 10 μM of UC2288 solution at days 3, 5, 7, 10, and 14 post-injury. At 21 days post-injury, mice were sacrificed, and their tibiae were excised. These bones were imaged using a microCT system that can differentiate between bone and soft tissue.

Data set [2] concerns MSCs. As to the kind of experiment: Osteogenic differentiation of MSCs, Alizarin Red S staining of calcium deposits. In kind it is cell-based, mouse (C57BL/6). On the procedure:
In order to test whether UC2288 can improve osteogenic capacity of MSCs, the purified MSCs were differentiated into osteoblasts after interaction with UC2288. For osteogenic differentiation experiment, 84,000 cells were added into wells of a 24-well plate (Corning Inc., NY). Each concentration of UC2288, i.e., 2.5 μM, 5 μM, and 10 μM were tested in triplicates along with their controls which had no drugs but simply DMEM media and incubated for a period of 24- and 48-hours. After the designated time periods, the drug solutions were aspirated out of each well. To test for osteogenesis at different concentrations, relevant media were added to cells and renewed every other day for up to 21 days.
The osteogenic media consisted of 1 nM of dexamethasone, 50 μg/mL of L-Ascorbic acid, and 10 mM of β-glycerophosphate (Sigma-Aldrich, MO) in 50 mL DMEM.
After 21 days of culture, cells were stained following the appropriate staining protocol. […]
This experiment tested the ability of cells that interacted with the UC2288 drug to generate bone-forming osteoblast cells. […] After staining each well by following an osteogenic staining protocol, the area of the stains was analyzed using ImageJ and the data were graphed in GraphPad Prism. […]

The subject of data set [3] is transverse tibial fracture. As to the kind of experiment: Microtomography imaging of transverse tibial fracture callus (Example 6). In kind it is in vivo, C57BI/6 wildtype mice. The settings on record: 10 μM, 0.1 mL at days 3, 5, 7, 10, 14; 4 weeks post-fracture. On the procedure: All protocols were approved by IACUC at UWM. C57BI/6 wildtype mice at 8 weeks of age were administered a transverse tibial fracture. The mice were injected with 10 μM of UC2288 solution at a volume of 0.1 mL at days 3, 5, 7, 10, and 14. The mice were sacrificed 4 weeks post-fracture and their tibiae were excised. The bone samples were placed in 10% formalin for two days followed by placement in 70% ethanol until they were ready for microCT imaging. Each sample was placed on a holder and few drops of phosphate buffered saline were placed along with the sample. The sample was scanned using a microCt (Zeiss Xradia Versa X-ray microscope) scanner at a 15 μm thickness per slice. The data was contoured using MIMICS (Materialise NV) followed by data analysis via Python. […] See FIG. 7A-B. The black and white images show where bone was automatically thresholded via ImageJ.

In the next data set the test system is Sp7 (Osterix). As to the kind of experiment: Gene expression analysis (qPCR, ΔΔCt) in HuMSCs: Sp7. The note with it: 7 days. It counts as cell-based, human. On the procedure:
as §1, §2, §3

With `O=C(Nc1ccc(Cl)c(C(F)(F)F)c1)N[C@H]1CC[C@H](Oc2ccc(C(F)(F)F)cn2)CC1` [UC2288, 1-(4-chloro-3-(trifluoromethyl)phenyl)-3-((1r,4r)-4-((5-(trifluoromethyl)pyridin-2-yl)oxy)cyclohexyl)urea], the “effect on osteogenic markers compared to 2.5 and 10 μM” value in the data set on RunX2 (5 μM) is listed as “most significant effect”. Moreover, the “RunX2 expression compared to controls” value with RunX2 (2.5, 5, 10 μM) was “increased osteogenic potential”. The “RunX2 expression compared to the osteogenic control” value with RunX2 (2.5, 5, 10 μM) is reported as “less than the osteogenic control”. In addition, the “proliferation of the MSCs (MTT, absorbance 540 nm) versus positive control DMEM media” value is given as “No significant difference” in the data set on MSCs [1] (2.5, 5 and 10 μM UC2288, 24 hours); “No significant difference” with MSCs [1] (2.5, 5 and 10 μM UC2288, 48 hours). Also, the “expression of p21 in HuMSCs” value with CDKN1A (p21) (2.5 μM) was “reduced p21 expression”; in the data set on CDKN1A (p21) (5 μM), “reduced p21 expression”; in the data set with CDKN1A (p21) (10 μM), “increased expression”. In addition, the “bone formation/healing versus saline control mice (microCT)” value in the data set on fractured tibiae was “more bone formation/healing”. Also, the “area of osteogenic stained cells, comparison of 2.5, 5 and 10 μM” value in the data set with MSCs [2] (5 μM UC2288 at 24 hr) is recorded as “most osteogenic stained cells”. Further, in the data set with MSCs [2] (10 μM UC2288 for 24 hr, 21 days osteogenic culture), the “staining for calcium deposits in osteoblasts from MSCs versus DMEM control” value was “Greater staining”. In data set [3], the “callus Surface Area (microCT)” value came to 0.1147 mm^2. In data set [3], the “callus Surface Area Pixels (microCT)” value is 7611878.877 Pixels. For the same compound, the “callus Volume (microCT)” value in data set [3] was found to be 0.4206 mm^3. Also, in data set [3], the “callus Volume Pixels (microCT)” value came out at 27919486 Pixels. Also, the “Sp7 expression compared to the osteogenic positive control” value in the data set with Sp7 (Osterix) (5 μM) and with Sp7 (Osterix) (10 μM) was “increased osteogenic potential” in each case. For the same compound, in the data set with Sp7 (Osterix) (all concentrations (2.5, 5, 10 μM)), the “Sp7 expression compared to the control” value was “increased osteogenic gene expression”.
